Measured values taken from paper PMC8448162, “Single- and Multiple-Ascending-Dose Study of the Safety, Tolerability, and Pharmacokinetics of the Polymyxin Derivative SPR206” (Antimicrobial Agents and Chemotherapy, 2021).
Positions of bridges follow the written chain, without caps; N, C: chain ends. Non-standard residues stand in square brackets, D forms with d. Residues, ends and D or L forms follow the SMILES beside them. *: point of attachment. X1 = NC[C@@H](CC(=O)*)c1cccc(Cl)c1; Dab = NCC[C@H](N)C(=O)O; Dap = NC[C@H](N)C(=O)O

Test: clinical
Parameters: species or system human
Conditions: in vivo; for AUC(0-inf): AUC0–inf; for clearance: CL; for Vd: Vz
Experimental: This was a single-center, phase 1, randomized, double-blind, placebo-controlled, first-in-human study to assess the safety, tolerability, and PK of SPR206 following SAD and MAD administrations (Fig. 7). In the SAD phase, subjects received a single i.v. dose of SPR206, and in the MAD phase, subjects received i.v. doses of SPR206 every 8 h (q8h) over a period of 7 to 14 days. SPR206 was administered as a 1 h i.v. infusion.
Maximum plasma concentration (Cmax), area under the concentration-time curve from time zero to last measurable time point (AUC0–t), area under the concentration-time curve from time zero to infinity (AUC0–inf), area under the concentration-time curve from time zero to tau (AUC0–tau), time to maximum concentration (Tmax), terminal elimination rate constant (kel), terminal half-life (t1/2), terminal clearance (CL), and volume of distribution (Vz) were determined. In addition, area under the concentration-time curve from 0 to 24 h after the start of infusion (AUC0–24) was determined for the SAD phase, and area under the concentration-time curve from time zero to 8 h from start of infusion (AUC0–8) on day 1 and 0 to 48 h (AUC0–48) following the last dose on day 14 as well as predose trough concentrations were determined for the MAD phase. Urine parameters included cumulative amount of drug excreted in successive urine intervals (Ae), renal clearance (CLR), fraction of cumulative fraction of dose recovered in urine as unchanged drug (Fe), and percentage fraction of cumulative fraction of dose recovered in urine as unchanged drug (Fe%). PK parameters were determined by noncompartmental analysis using Phoenix WinNonlin 8.1.
For the SAD phase, blood samples were obtained predose and at 30, 60, 75, 90, 105, 120, and 150 min and at 3, 5, 8, 12, and 24 h following the start of infusion. Urine was collected for PK assessment predose and over the intervals of 0 to 4 h, 4 to 8 h, 8 to 12 h, and 12 to 24 h after the start of infusion.
In the MAD phase, plasma samples for PK analysis were collected (i) on day 1—pre-dose and at 30, 60, 75, 90, 105, 120, and 150 min and at 3, 5, and 8 h following start of the first infusion; (ii) prior to the morning dose (within 10 min) on days 2, 3, 5, 7, 9, 11, and 13; and (iii) predose and 30, 75, 90, 105, 120, and 150 min and 3, 5, 8, and 12 h (day 14), 24, 36 (day 15), and 48 h (day 16) following start of the last infusion. Urine was collected for PK assessment on day 1 predose, over the intervals 0 to 4 h and 4 to 8 h after start of first infusion, and on days 14 and 15 over the intervals 0 to 4 h, 4 to 8 h, 8 to 12 h, and 12 to 24 h after start of day 14 infusion. Total 24-h urine for calculating CrCl was collected from the morning of day −1 to predose on day 1 and on days 15 and 16 over the interval from 24 to 48 h after the start of the day 14 infusion. Urine creatinine concentrations were measured using 24-h collections prior to the first dose on day 1 and over the 24 to 48 h following start of infusion of the last dose (day 14). Plasma and urine samples for SPR206 levels were analyzed using a validated liquid chromatography-tandem mass spectrometry (LC-MS/MS) method. The assay range for SPR206 was 50 to 5,000 ng/ml in plasma and 100 to 50,000 ng/ml in urine. In plasma, assay precision was 1.3 to 7.7%, accuracy was 1.2 to 9.5%, stability was 194 h at 4°C, and reproducibility was 98.4%. In urine, assay precision was 1.7 to 7.5%, accuracy was −4.8 to 7.3%, stability was 147 h at 4°C, and reproducibility was 97.8%.
Plasma and urine concentrations and PK parameters for SPR206 were summarized for each treatment using descriptive statistics. In the SAD/MAD study, geometric means were calculated for AUC and Cmax. Analyses using linear models were performed to assess dose proportionality (both single dose and multiple dose), time dependence, accumulation, and attainment of steady state after multiple doses. […]

CC(C)C[C@@H]1NC(=O)[C@@H](Cc2ccccc2)NC(=O)[C@H](CCN)NC(=O)[C@@H](NC(=O)[C@H](CN)NC(=O)[C@@H](NC(=O)C[C@H](CN)c2cccc(Cl)c2)[C@@H](C)O)CCNC(=O)[C@H]([C@@H](C)O)NC(=O)[C@H](CCN)NC(=O)[C@H](CCN)NC1=O [SPR206] (X1-T[Dap][Dab][Dab][dF]L[Dab][Dab]T; lactam 3-C (inferred))
Tmax (human): 1.1 to 1.3 h
accumulation ratio for AUC0–inf (human): 1.3-1.8
accumulation ratio for Cmax (human): 1.1-1.3
geometric CV for AUC0-inf (human): 6.9-17.4%
AUC0–8 (human, 25 mg): 4,391 ± 740 h · ng/ml
AUC0–inf (human, 25 mg): 5,197 ± 945 h · ng/ml
AUC%ext (human, 25 mg): 10.0 ± 4.5 ng·h/mL
CL (human, 25 mg): 4.9 ± 0.9 L/h
Cmax (human, 25 mg): 1,410 ± 241 ng/ml
Vz (human, 25 mg): 21.3 ± 3.6 L
half-life (human, 25 mg): 2.7 ± 0.2 h
AUC(0-t) (human, 25 mg, AUC0–8): 5880 ng·h/mL
AUC(0-t) (human, 25 mg, AUC0–48): 7680 ng·h/mL
AUC(0-inf) (human, 25 mg): 7690 ng·h/mL
clearance (human, 25 mg): 73.3 mL/min
Cmax (human, 25 mg, Cmax): 1610 ng/mL
half-life (human, 25 mg, Half-life): 4 ± 0.6 h
Vd (human, 25 mg): 18.9 ± 2.6 L
AUC0–8 (human, 50 mg): 7,955 ± 951 h · ng/ml
AUC0–inf (human, 50 mg): 9,243 ± 1,417 h · ng/ml
CL (human, 50 mg): 5.5 ± 0.8 L/h
Cmax (human, 50 mg): 2,525 ± 413 ng/ml
half-life (human, 50 mg): 2.7 ± 0.3 h
AUC(0-t) (human, 50 mg, AUC0–8): 10000 ng·h/mL
AUC(0-t) (human, 50 mg, AUC0–48): 12400 ng·h/mL
AUC(0-inf) (human, 50 mg): 12400 ng·h/mL
clearance (human, 50 mg): 83.3 mL/min
Cmax (human, 50 mg, Cmax): 2900 ng/mL
half-life (human, 50 mg, Half-life): 3.5 ± 0.9 h
Vd (human, 50 mg): 21.5 ± 1.8 L
AUC0–48 (human, 100 mg): 29,828 ± 5,112 h · ng/ml
AUC(0-t) (human, 100 mg, AUC0–8): 21300 ng·h/mL
AUC(0-t) (human, 100 mg, AUC0–48): 27500 ng·h/mL
AUC(0-inf) (human, 100 mg): 27700 ng·h/mL
clearance (human, 100 mg): 80 mL/min
Cmax (human, 100 mg, Cmax): 6340 ng/mL
Vd (human, 100 mg): 20.8 ± 2.9 L
AUC0–8 (human, 150 mg): 27,492 ± 3,452 h · ng/ml
AUC0–inf (human, 150 mg): 30,981 ± 4,189 h · ng/ml
CL (human, 150 mg): 4.9 ± 0.6 L/h
Cmax (human, 150 mg): 8,990 ± 1,056 ng/ml
Vz (human, 150 mg): 19.6 ± 3.2 L
higher plasma AUC0–8 and Cmax relative to the mean values for the cohort (human, 150 mg): approximately 23%
AUC(0-t) (human, 150 mg, AUC0–8): 41500 ng·h/mL
AUC(0-t) (human, 150 mg, AUC0–48): 55500 ng·h/mL
AUC(0-inf) (human, 150 mg): 56000 ng·h/mL
clearance (human, 150 mg): 61.7 mL/min
Cmax (human, 150 mg, Cmax): 11500 ng/mL
Vd (human, 150 mg): 17.1 ± 2.1 L
half-life (human, half-life): 2.4 to 4.1 h
Tmax (human, iv, 10 mg): 1 h
AUC(0-t) (human, iv, 10 mg, AUC0–8): 1560 ng·h/mL
AUC(0-inf) (human, iv, 10 mg): 1810 ng·h/mL
clearance (human, iv, 10 mg): 93.3 mL/min
Cmax (human, iv, 10 mg, Cmax): 495 ± 46.5 ng/mL
half-life (human, iv, 10 mg, Half-life): 2.6 ± 0.1 h
Vd (human, iv, 10 mg): 21 ± 3.4 L
Tmax (human, iv, 25 mg): 1 h
AUC(0-t) (human, iv, 25 mg, AUC0–8): 3810 ng·h/mL
AUC(0-inf) (human, iv, 25 mg): 4440 ng·h/mL
clearance (human, iv, 25 mg): 96.7 mL/min
Cmax (human, iv, 25 mg, Cmax): 1290 ng/mL
half-life (human, iv, 25 mg, Half-life): 2.8 ± 0.2 h
Vd (human, iv, 25 mg): 23.5 ± 4.3 L
Tmax (human, iv, 50 mg): 1 h
AUC(0-t) (human, iv, 50 mg, AUC0–8): 9380 ng·h/mL
AUC(0-inf) (human, iv, 50 mg): 10700 ng·h/mL
clearance (human, iv, 50 mg): 78.3 mL/min
Cmax (human, iv, 50 mg, Cmax): 3420 ng/mL
half-life (human, iv, 50 mg, Half-life): 2.6 ± 0.3 h
Vd (human, iv, 50 mg): 17.8 ± 2.9 L
Tmax (human, iv, 100 mg): 1.1 h
AUC(0-t) (human, iv, 100 mg, AUC0–8): 17300 ng·h/mL
AUC(0-inf) (human, iv, 100 mg): 20400 ng·h/mL
clearance (human, iv, 100 mg): 83.3 mL/min
Cmax (human, iv, 100 mg, Cmax): 5330 ng/mL
half-life (human, iv, 100 mg, Half-life): 3 ± 0.3 h
Vd (human, iv, 100 mg): 21.4 ± 2.8 L
Tmax (human, iv, 200 mg): 1.1 h
AUC(0-t) (human, iv, 200 mg, AUC0–8): 34500 ng·h/mL
AUC(0-inf) (human, iv, 200 mg): 40900 ng·h/mL
clearance (human, iv, 200 mg): 81.7 mL/min
Cmax (human, iv, 200 mg, Cmax): 11300 ng/mL
half-life (human, iv, 200 mg, Half-life): 3.4 ± 0.7 h
Vd (human, iv, 200 mg): 24 ± 3.1 L
Tmax (human, iv, 300 mg): 1.1 h
AUC(0-t) (human, iv, 300 mg, AUC0–8): 57700 ng·h/mL
AUC(0-inf) (human, iv, 300 mg): 71000 ng·h/mL
clearance (human, iv, 300 mg): 70 mL/min
Cmax (human, iv, 300 mg, Cmax): 18200 ng/mL
half-life (human, iv, 300 mg, Half-life): 4.1 ± 0.4 h
Vd (human, iv, 300 mg): 25.4 ± 3.3 L
Tmax (human, iv, 400 mg): 1.1 h
AUC(0-t) (human, iv, 400 mg, AUC0–8): 89300 ng·h/mL
clearance (human, iv, 400 mg): 61.7 mL/min
Cmax (human, iv, 400 mg, Cmax): 25400 ng/mL
half-life (human, iv, 400 mg, Half-life): 3.7 ± 0.5 h
Vd (human, iv, 400 mg): 19.4 ± 3.2 L
dose proportionality estimate (90% CI) for AUC0–inf: 1.11 (1.07, 1.14)
dose proportionality estimate (90% CI) for AUC0–last: 1.14 (1.11, 1.18)
dose proportionality estimate (90% CI) for Cmax: 1.05 (1.02, 1.08)
estimate of the exponent from the power model (90% CI) for AUC0–inf: 1.03 (0.94, 1.12)
estimate of the exponent from the power model (90% CI) for AUC0–last: 1.07 (0.98, 1.16)
estimate of the exponent from the power model (90% CI) for Cmax: 1.03 (0.96, 1.10)
intersubject variability in exposure: 10-25%
steady state achieved (based on Ctrough): ≤ 2 days
